Among the data in article PMC12626088 (RSC Advances, 2025) are IC50 values, retold here.

One assay concerns the target α-amylase. Put plainly: α-amylase inhibition assay. Format: biochemical. Particulars: sample described as 'SR (compound 4a) methanolic extract'.
The target of a further assay is α-glucosidase. Put plainly: α-glucosidase inhibition assay. In kind it is biochemical. Particulars: sample described as 'SR (compound 4a) methanolic extract'.

The structures appear in SMILES notation. Converted amounts (≈) assume the structure as drawn.

As a reminder, the IC50 is the point on the concentration scale where inhibition reaches its midpoint. A low value points to higher potency.

Take `C(#CC(c1ccccc1)N1CCOCC1)c1ccccc1` (centres unmarked) [4a, 4-(1,3-diphenylprop-2-yn-1-yl)morpholine]: the concentration for half-maximal inhibition (IC50) was 112.98 µg/mL (≈ 407 µM) against α-amylase and 111.42 µg/mL (≈ 402 µM) on α-glucosidase.
